Test results reported in article PMC7537397, “Deciphering and predicting CD4^+ T cell immunodominance of influenza virus hemagglutinin” (The Journal of Experimental Medicine, 2020).

Key:
[1] = tested on: H1-HA–reactive T cell clones from CD4^+ naive T cell compartment; assay type: cell-based, human
[2] = tested on: H1-HA–specific memory CD4^+ T cell clones, donor HD1; test: Functional avidity of memory T cell clones with anti-head or anti-stem EBV-B cell clones as APCs; assay type: cell-based, human; settings: HLA-DR–restricted clones specific for the peptide
[3] = tested on: HLA-DR, HLA-DQ, HLA-DP; test: MHC-II restriction of T cell clones with blocking antibodies; assay type: cell-based, human
[4] = tested on: MHC-II molecules; test: MS-based MHC-II peptidomics, H1-HA–pulsed anti-head and anti-stem EBV-B cell clones of donor HD1; parameters: species or system human; settings: 401–420: anti-stem clone; 416–430 and 386–400: both anti-head and anti-stem clones; union of n = 3
[5] = tested on: H1-HA–reactive T cell clones from CD4^+ memory (Tcm, Tem, or cTfh) compartment, donor HD1; assay type: cell-based, human
[6] = target: HLA-DRB1*08:01 (Homo sapiens, UniProt P01903+P01911, A100R/A103L/A169T/D86S/F76Y/H45Y/I96F/K41T/L162R/M171V/P40S/Q125H/Q178H/Q39Y/Q99D/R218S/R42G/S66Y/V115G/W38E); assay type: binding; settings: pH 7
[7] = tested on: H1-HA–specific memory CD4^+ T cell clones, donor HD1; assay type: cell-based, human; settings: for functional avidity for peptide, memory T cell clone specific for the peptide: donor HD1 memory clones M1 (411–430), M2 (396–410), M3 (526–540), M4 (121–140), M5 (186–200), M6 (446–460), autologous monocytes; for functional avidity for peptide, memory T cell clone specific for the peptide / functional avidity for H1-HA protein, memory T cell clone specific for the peptide: from EC50, day 3; for functional avidity for H1-HA protein, memory T cell clone specific for the peptide: donor HD1 memory clones M1, M4, M5, M6; for fold lower functional avidity for H1-HA protein, memory T cell clone specific for the peptide: clones M2 (396–410) and M3 (526–540), had avidity for peptide comparable to clone M1
[8] = tested on: H1-HA–specific naive CD4^+ T cell clones, donor HD1; assay type: cell-based, human; settings: for fold lower avidity for protein, naive T cell clone specific for the peptide: clones N2 (521–540) and N3 (536–555); for functional avidity for peptide, naive T cell clone specific for the peptide: donor HD1 naive clones N1 (411–430), N2 (521–540), N3 (536–555), autologous monocytes, from EC50, day 3
[9] = tested on: naive and memory CD4^+ T cells; test: T cell library screening and epitope mapping, naive and memory CD4^+ T cells; assay type: cell-based, human; settings: memory library

In the case of AGAKSFYKNLIWLVKKGNSY, the “N sister clones (epitope-specific naive clones per TCR Vβ clonotype)” value [1] is reported as 1.
For EDKHNGKLCKLRGVAPLHLG, the “N sister clones (epitope-specific naive clones per TCR Vβ clonotype)” value [1] was 1.
EGRMNYYWTLVEPGDKITFE was tested, and the “activation, proliferation and functional avidity with anti-stem compared with anti-head B cells as APCs” value [2] was “much lower activation and proliferation”, the “reduction of functional avidity with anti-stem compared with anti-head B cells as APCs” value [2] was 10 fold and the “MHC-II restriction of T cell clones specific for the peptide” value (shortened to “MHC-II restriction”) [3] was “HLA-DR restricted”.
EKMNTQFTAVGKEFNHLEKR was tested, and the “detection of H1-HA–derived peptides of the region by MHC-II immunopeptidomics, HD1 B cell clones” value (shortened to “detection”) [4] was “did not detect any”, the “activation, proliferation and functional avidity with anti-stem compared with anti-head B cells as APCs” value [2] was “much lower activation and proliferation” and the “reduction of functional avidity with anti-stem compared with anti-head B cells as APCs” value [2] was 10 fold. The “number of different TCR Vβ clonotypes specific for the peptide” value ([5]; 88 distinct clonotypes in total) was 16 clonotypes, the “number of sequenced T cell clones specific for the peptide” value ([5]; 274 clones sequenced) was 62 clones and the “MHC-II restriction” value [3] was “HLA-DR restricted”. For the same sequence, the “binding affinity to HLA-DRB1*08:01 relative to subdominant peptides” value [6] was “comparable to that of subdominant peptides”.
With GFLDIWTYNAELLVL the “N sister clones (epitope-specific naive clones per TCR Vβ clonotype)” value [1] was 1.
With GFLDIWTYNAELLVLLENER the “N sister clones (epitope-specific naive clones per TCR Vβ clonotype)” value [1] was 1.
In the case of GKLCKLRGVAPLHLG, the “N sister clones (epitope-specific naive clones per TCR Vβ clonotype)” value [1] is reported as 1.
For HLEKRIENLNKKVDD, the “detection” value [4] was “detected by MHC-II immunopeptidomics on both anti-head and anti-stem B cell clones”, the “activation, proliferation and functional avidity with anti-stem compared with anti-head B cells as APCs” value [2] was “comparable functional avidity” and the “MHC-II restriction” value [3] was “HLA-DR–restricted”.
In the case of KGKEVLVLWGIHHPS, the “functional avidity for peptide, memory T cell clone specific for the peptide” value [7] is reported as “functional avidity lower than the median of the distribution”, the “functional avidity for H1-HA protein, memory T cell clone specific for the peptide” value [7] is reported as “functional avidity lower than the median of the distribution” and the “MHC-II restriction” value [3] is reported as “HLA-DQ”.
With KLESTRIYQILAIYSTVASS the “fold lower avidity for protein, naive T cell clone specific for the peptide” value [8] was 100 fold and the “functional avidity for peptide, naive T cell clone specific for the peptide” value [8] was “high avidity”.
In the case of LENERTLDYHDSNVK, the “functional avidity for peptide, memory T cell clone specific for the peptide” value [7] is reported as “functional avidity lower than the median of the distribution”, the “functional avidity for H1-HA protein, memory T cell clone specific for the peptide” value [7] is reported as “functional avidity lower than the median of the distribution” and the “MHC-II restriction” value [3] is reported as “HLA-DQ”.
In the case of QNAIDEITNKVNSVI, the “detection” value [4] is reported as “detected by MHC-II immunopeptidomics on both anti-head and anti-stem B cell clones”, the “activation, proliferation and functional avidity with anti-stem compared with anti-head B cells as APCs” value [2] is reported as “comparable functional avidity” and the “MHC-II restriction” value [3] is reported as “HLA-DR–restricted”.
RIYQILAIYSTVASS was tested, and the “fold lower functional avidity for H1-HA protein, memory T cell clone specific for the peptide” value [7] was 1,000 fold and the “functional avidity for peptide, memory T cell clone specific for the peptide” value [7] was “high functional avidity”.
SRYSKKFKPEIAIRPKVRDQ was tested, and the “N sister clones (epitope-specific naive clones per TCR Vβ clonotype)” value [1] was 1.
TVASSLVLVVSLGAISFWMC was tested, and the “N sister clones (epitope-specific naive clones per TCR Vβ clonotype)” value [1] was 1, the “fold lower avidity for protein, naive T cell clone specific for the peptide” value [8] was 100 fold and the “functional avidity for peptide, naive T cell clone specific for the peptide” value [8] was “high avidity”.
For VNSVIEKMNTQFTAV, the “fold lower functional avidity for H1-HA protein, memory T cell clone specific for the peptide” value [7] was 1,000 fold, the “functional avidity for peptide, memory T cell clone specific for the peptide” value [7] was “high functional avidity” and the “percentage of immunodominant T cell clones” value ([9]; donor HD4) was 31.1%.
In the case of VVPRYAFAMERNAGSGIIIS, the “percentage of immunodominant T cell clones” value ([9]; donor HD3) is reported as 24.5%.
